According to patent US20220054411A1, “MULTIPLE CONCENTRATE FORMULATION FOR MEDICAL PRODUCTS” (priority 2020, published 2022):
≈ marks a conversion by molar mass, not a printed value.

Legend:
Assay type in all cases: cell-based
[1] = test system: Escherichia coli; test: Minimal Inhibitory Concentration against Escherichia coli
[2] = test system: Staphylococcus Aureus; test: Minimal Inhibitory Concentration against Staphylococcus Aureus
[3] = test system: Pseudomonas Aeruginosa; test: Minimal Inhibitory Concentration against Pseudomonas Aeruginosa
[4] = test system: Staphylococcus epidermidis; test: Minimal Inhibitory Concentration against Staphylococcus epidermidis; conditions: at 24 hours

Compound | MIC ([1]; pH 5, at 24 hours) [µg/mL] | MIC ([1]; pH 6, at 24 hours) [µg/mL] | MIC ([1]; pH 7, at 24 hours) [µg/mL] | MIC ([2]; pH 5, at 24 hours) [µg/mL] | MIC ([2]; pH 6, at 24 hours) [µg/mL] | MIC ([2]; pH 7, at 24 hours) [µg/mL] | Minimal Inhibitory Concentration [3] [micrograms per milliliter] | Minimal Inhibitory Concentration [4] [micrograms per milliliter] | Minimal Inhibitory Concentration ([1]; pH 5, at 24 hours) [micrograms per milliliter] | Minimal Inhibitory Concentration ([1]; pH 6, at 24 hours) | Minimal Inhibitory Concentration ([1]; pH 7, at 24 hours) | Minimal Inhibitory Concentration ([2]; pH 5, at 24 hours) [micrograms per milliliter] | Minimal Inhibitory Concentration ([2]; pH 6, at 24 hours) [micrograms per milliliter] | Minimal Inhibitory Concentration ([2]; pH 7, at 24 hours) [micrograms per milliliter]
C/C=C/C=C/C(=O)O [Sorbic Acid, sorbic acid] | 312 (≈ 2790 µM) | 1250 (≈ 11100 µM) | > 5000 | 156 (≈ 1390 µM) | 312 (≈ 2790 µM) | 1250 (≈ 11100 µM) |  |  |  |  |  |  |  | 
CCCCCCCCCCCC(=O)OCC(O)CO (centres unmarked) [Monolaurin, monolaurin] |  |  |  |  |  |  | 62.5 | 1953 | 500 | 2,000 micrograms per milliliter | >4,000 micrograms per milliliter | 16 | 64 | 128
